Reference: article PMC2721901 (Molecular cell, 2009)

Experiments:
Type in all cases: biochemical
ISW1a = ISW1a (Saccharomyces cerevisiae, UniProt P38144); assay: nucleosome mobilization, native gel shift; details: 70N0 nucleosomes, 90 or 800 µM ATP, 5 mM MgCl2, pH 7.6, 20°C
ISW2 [1] = target: T1, ISW2 (Saccharomyces cerevisiae, UniProt Q08773); assay: nucleosome mobilization, native gel shift; details: 70N0 nucleosomes, 90 or 800 µM ATP, 5 mM MgCl2, pH 7.6, 20°C
ISW2 [2] = target: T1, ISW2; assay: competitive inhibitor assay against ATP; details: competitive with ATP at active site

T1 sequence (Q08773 whole entry): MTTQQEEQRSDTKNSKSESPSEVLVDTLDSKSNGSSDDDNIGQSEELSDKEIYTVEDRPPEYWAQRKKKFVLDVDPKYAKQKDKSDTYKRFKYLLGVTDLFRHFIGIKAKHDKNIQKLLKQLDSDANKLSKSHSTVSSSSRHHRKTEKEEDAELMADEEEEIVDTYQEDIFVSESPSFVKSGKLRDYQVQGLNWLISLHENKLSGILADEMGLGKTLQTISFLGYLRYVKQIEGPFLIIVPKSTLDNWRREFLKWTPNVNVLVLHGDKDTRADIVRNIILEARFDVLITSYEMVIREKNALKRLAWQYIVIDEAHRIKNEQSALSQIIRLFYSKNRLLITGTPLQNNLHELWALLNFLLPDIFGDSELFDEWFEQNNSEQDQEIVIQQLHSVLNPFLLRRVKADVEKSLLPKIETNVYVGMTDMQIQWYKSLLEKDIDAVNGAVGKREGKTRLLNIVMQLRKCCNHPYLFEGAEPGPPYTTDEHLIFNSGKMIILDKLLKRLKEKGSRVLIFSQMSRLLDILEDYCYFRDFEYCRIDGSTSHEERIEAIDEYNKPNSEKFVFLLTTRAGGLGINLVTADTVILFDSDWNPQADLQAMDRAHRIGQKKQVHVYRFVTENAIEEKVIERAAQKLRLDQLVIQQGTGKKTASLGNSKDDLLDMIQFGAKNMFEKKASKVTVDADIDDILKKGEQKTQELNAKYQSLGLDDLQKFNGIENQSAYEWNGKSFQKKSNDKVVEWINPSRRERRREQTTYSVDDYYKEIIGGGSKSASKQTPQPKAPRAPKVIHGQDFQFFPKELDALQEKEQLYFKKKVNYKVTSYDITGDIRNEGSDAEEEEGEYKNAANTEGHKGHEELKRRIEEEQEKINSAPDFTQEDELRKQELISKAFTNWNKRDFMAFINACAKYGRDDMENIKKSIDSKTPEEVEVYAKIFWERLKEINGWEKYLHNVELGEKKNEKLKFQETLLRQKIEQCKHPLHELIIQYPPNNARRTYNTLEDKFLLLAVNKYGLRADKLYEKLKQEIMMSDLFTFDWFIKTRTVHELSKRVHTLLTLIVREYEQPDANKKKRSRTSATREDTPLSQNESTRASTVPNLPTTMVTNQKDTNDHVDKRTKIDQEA
T1 sequence (P53125 whole entry partner): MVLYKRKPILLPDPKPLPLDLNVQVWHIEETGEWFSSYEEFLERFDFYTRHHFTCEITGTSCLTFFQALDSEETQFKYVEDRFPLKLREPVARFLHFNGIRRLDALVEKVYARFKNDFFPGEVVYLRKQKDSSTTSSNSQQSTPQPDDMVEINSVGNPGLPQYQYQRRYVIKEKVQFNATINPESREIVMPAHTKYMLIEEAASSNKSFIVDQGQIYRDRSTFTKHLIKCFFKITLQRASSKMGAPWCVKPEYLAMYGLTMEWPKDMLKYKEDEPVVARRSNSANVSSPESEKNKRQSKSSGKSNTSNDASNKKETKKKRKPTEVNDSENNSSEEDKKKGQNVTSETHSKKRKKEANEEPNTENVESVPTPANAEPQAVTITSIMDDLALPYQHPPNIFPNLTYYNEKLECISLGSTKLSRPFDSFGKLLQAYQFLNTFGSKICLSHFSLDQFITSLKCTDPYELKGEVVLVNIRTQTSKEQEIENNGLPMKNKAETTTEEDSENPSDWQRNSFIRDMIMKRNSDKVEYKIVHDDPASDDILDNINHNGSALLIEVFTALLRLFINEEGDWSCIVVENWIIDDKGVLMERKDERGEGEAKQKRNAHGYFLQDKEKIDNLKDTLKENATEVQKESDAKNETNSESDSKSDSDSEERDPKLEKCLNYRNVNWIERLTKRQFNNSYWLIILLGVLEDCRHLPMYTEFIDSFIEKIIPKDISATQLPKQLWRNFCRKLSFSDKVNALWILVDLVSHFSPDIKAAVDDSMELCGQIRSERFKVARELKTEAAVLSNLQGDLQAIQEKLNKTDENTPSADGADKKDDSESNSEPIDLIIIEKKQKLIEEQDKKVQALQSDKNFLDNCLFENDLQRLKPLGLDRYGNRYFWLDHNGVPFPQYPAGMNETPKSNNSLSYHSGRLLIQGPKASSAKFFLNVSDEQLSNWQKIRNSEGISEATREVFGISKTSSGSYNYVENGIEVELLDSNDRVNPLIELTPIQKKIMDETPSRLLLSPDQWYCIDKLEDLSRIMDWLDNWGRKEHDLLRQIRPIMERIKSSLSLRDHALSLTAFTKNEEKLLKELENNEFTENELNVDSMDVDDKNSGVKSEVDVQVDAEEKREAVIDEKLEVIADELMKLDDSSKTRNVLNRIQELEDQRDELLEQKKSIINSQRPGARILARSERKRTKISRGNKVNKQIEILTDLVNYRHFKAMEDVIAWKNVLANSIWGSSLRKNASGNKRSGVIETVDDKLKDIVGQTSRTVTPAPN
T1 sequence (Q04603 whole entry partner): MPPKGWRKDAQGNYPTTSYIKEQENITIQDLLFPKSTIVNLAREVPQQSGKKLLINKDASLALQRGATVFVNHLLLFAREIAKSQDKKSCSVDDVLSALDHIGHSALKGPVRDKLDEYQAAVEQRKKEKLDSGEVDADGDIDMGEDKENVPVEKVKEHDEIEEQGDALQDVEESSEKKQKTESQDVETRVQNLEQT
T1 sequence (P40366 whole entry partner): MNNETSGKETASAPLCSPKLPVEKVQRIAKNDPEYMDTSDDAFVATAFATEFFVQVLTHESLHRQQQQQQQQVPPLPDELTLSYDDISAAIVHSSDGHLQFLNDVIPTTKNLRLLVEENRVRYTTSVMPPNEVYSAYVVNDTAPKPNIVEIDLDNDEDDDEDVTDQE
Sequence of ISW1a (P38144 whole entry): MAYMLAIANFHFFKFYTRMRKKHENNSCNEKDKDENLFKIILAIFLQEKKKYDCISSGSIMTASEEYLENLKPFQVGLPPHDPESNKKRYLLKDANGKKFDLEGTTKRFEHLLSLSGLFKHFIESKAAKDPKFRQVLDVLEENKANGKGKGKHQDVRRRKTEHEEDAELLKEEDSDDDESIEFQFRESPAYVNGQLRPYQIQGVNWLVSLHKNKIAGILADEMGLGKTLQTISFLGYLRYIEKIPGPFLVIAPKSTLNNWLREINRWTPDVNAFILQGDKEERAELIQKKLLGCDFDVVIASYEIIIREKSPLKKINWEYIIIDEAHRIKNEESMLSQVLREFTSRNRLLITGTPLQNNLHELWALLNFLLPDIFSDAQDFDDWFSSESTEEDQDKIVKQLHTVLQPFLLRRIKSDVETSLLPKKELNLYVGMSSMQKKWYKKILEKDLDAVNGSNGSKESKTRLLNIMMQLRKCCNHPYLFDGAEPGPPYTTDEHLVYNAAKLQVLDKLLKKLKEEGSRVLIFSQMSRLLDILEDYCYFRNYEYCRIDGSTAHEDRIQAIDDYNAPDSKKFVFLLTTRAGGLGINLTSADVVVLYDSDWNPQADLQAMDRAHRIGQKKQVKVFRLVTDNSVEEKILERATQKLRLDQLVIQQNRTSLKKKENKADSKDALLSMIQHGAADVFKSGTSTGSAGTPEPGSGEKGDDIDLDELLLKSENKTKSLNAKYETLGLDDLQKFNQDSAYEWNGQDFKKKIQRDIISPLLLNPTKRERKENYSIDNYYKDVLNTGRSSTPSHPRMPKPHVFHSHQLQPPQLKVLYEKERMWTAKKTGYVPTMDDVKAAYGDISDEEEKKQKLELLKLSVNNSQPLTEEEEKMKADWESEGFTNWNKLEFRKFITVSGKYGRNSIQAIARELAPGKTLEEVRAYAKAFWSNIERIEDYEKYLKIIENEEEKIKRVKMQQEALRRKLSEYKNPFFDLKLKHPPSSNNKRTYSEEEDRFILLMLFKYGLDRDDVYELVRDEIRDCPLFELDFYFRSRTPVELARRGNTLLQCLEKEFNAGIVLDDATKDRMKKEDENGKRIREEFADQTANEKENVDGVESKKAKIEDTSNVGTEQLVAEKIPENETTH
Sequence of ISW1a (P43596 whole entry partner): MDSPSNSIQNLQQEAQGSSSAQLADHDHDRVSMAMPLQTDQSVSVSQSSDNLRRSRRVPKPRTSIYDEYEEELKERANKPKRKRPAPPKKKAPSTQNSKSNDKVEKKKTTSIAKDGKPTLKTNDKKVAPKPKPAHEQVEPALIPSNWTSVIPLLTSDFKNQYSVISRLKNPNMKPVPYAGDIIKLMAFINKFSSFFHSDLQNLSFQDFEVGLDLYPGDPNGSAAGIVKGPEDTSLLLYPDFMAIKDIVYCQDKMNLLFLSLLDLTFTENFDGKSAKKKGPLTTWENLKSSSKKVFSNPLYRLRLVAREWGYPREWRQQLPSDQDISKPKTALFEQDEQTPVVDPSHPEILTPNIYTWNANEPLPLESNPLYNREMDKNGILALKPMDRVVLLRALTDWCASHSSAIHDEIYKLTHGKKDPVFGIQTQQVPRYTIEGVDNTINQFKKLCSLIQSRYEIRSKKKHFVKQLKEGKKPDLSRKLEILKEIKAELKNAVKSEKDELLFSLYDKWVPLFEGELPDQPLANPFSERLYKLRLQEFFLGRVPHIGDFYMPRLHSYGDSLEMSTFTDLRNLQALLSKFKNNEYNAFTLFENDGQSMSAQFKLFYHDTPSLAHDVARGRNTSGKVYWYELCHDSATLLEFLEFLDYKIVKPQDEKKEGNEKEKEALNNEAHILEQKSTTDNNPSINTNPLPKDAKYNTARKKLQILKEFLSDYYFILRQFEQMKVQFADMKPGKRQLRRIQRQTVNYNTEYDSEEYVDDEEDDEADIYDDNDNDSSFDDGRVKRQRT

SMILES | nucleosome mobilization, native gel shift (ISW1a) | nucleosome mobilization, native gel shift (ISW2 [1]) | competitive inhibitor assay against ATP (ISW2 [2])
Nc1ncnc2c1ncn2[C@@H]1O[C@H](COP(=O)(O)OP(=O)(O)OP(=O)(O)O)[C@@H](O)[C@H]1O [ATP] | ATP was found to be required for template commitment by ISW1a | Template commitment of ISW2 required initiation of the remodeling process rather than just ISW2 binding | 
Nc1ncnc2c1ncn2[C@@H]1O[C@H](COP(=O)(O)OP(=O)(O)O)[C@@H](O)[C@H]1O [ADP] |  |  | ADP and γ-S-ATP were shown to be bound at the active site of ISW2
